According to patent US9426996B2, “Use of benzoxaboroles as volatile antimicrobial agents on meats, plants, or plant parts” (AgroFresh Inc., priority 2013, dated 2016):

Assays:
Botrytis cinerea [1] = test: in vivo volatile bioassay using green table grape
Protocol: In order to assess the in vivo activity of volatile antimicrobial compounds, a volatile bioassay is developed using green table grape. Fruit are placed individually inside a 20 mL scintillation vial, with the stem wound facing upwards. The fresh stem wound is inoculated with 10 μL of 1×10^6 per mL Botrytis cinerea spore suspension. Whatman filter paper (Cat. No. 1822-024) is placed inside duplicate vial caps. […] The acetone is permitted to evaporate for 5 minutes. The vials are then capped with the lids containing the fungicide, and placed for 14 days at 4° C. After storage, fruit are evaluated for incidence of disease and appearance of phytotoxicity.

Botrytis cinerea [2] = test: white carnations with natural inoculum, fog or passive volatile treatment; format: in vivo; settings: 8 days of shelf-life
Protocol: A similar test like the one described above is also performed on white carnations (treated with or without the commercial anti-ethylene compound silver thiosulfate; STS) with natural inoculum. Compound A is either dissolved in an aqueous 1,2-propylene glycol solution (3:1) and 5 mL of the solution volatilized using an ES-100-H SmartFog system (Reno, Nev.) through a ½″ side port that is sealed immediately after the application, or dissolved in acetone and applied to a 42.5 millimeter (mm) Whatman #1 filter disk (Cat. No. 1001-042), and placed on a watch glass after allowing the acetone to evaporate for 5 minutes. The flowers are incubated for 3 days at 21° C. After storage, the flowers are evaluated for an additional 8 days for disease severity based on the number of lesions present on flower petals and sepals.

Botrytis cinerea [3] = test: combination treatment with 1-MCP on white roses; format: in vivo; settings: three day volatile treatment at 21° C.
Protocol: To evaluate a combination treatment of Compound A with 1-methylcyclopropene (1-MCP), an in vivo experiment is performed on white roses.
Five white roses are placed in an 800 mL jar containing 200 mL of a common commercial flower preservative. Three jars are then placed in a 117 L Rubbermaid storage box (Cat #2244). Two small fans are placed in opposite ends of the container to assist with the distribution of the two volatiles. A 500 parts per billion (ppb) volume per volume (v/v) 1-MCP treatment is applied (AgroFresh, Springhouse, Pa.) for 24 hours at 21° C. After the 1-MCP treatment is completed, the containers are vented, and Compound A powder is applied in a dose dependent manner to achieve a final headspace concentration of 0.2, 0.04, or 0.008 mg/L with a sublimation device (copper tube heated to 200° C. with fan flow at 0.5 L/min), with the end of the tube penetrating through a ½ inch side port in the container that is sealed immediately after the application. The flowers are incubated for three days at 21° C. After treatment, the flowers are evaluated for an additional seven days at 21° C. for disease incidence and severity of the flower petals.

Penicillium expansum = test: in vivo contact drench assay on apples
Protocol: In order to assess the activity of Compound A (FIG. 1) as a contact drench fungicide, an in vivo assay is developed. […] Compound A is dissolved in water to achieve a final treatment solution concentration of 250, 50, or 10 mg/L. The fruit is dipped in Compound A solution for 1 minute and allowed to dry for 1 hour. Fruit wounds are then inoculated with 30 μL of 1×10^6 per mL Penicillium expansum spore suspension (apple) or Penicillium digitatum spore suspension (orange). Clamshells are then placed in a 10.8-cup SnapWare airtight container (Model #109842) and incubated for 3 days at 21° C.

Botrytis cinerea [4] = test: in vitro spore germination and mycelial growth after transfer; format: cell-based; settings: for Mycelial growth after transfer (%): 3 d after transfer to clean PDA
Protocol: In order to assess the activity of Compound A as a volatile fungicide, an in vitro assay is developed to evaluate spore germination. 3.5-cm Petri plates are filled with 2 mL of water agar. After cooling, 1 μL of 1×10^5 per mL Botrytis cinerea spore suspension is spot-pipetted into the center of the plate. Plates are inoculated immediately prior to volatile fungicide treatment. A Whatman #1 filter disk (Cat. No. 1001-0155) is placed, in duplicate, on the underside of a plate lid. […] After 24 hours of storage at 23° C., 100 spores are counted for percent germination, where germination is defined as a germ tube that has extended a distance greater than the length of the spore. After counting, treatment is removed, and the plates are resealed. After an additional 24 hours, 100 spores are again counted. Plugs are then transferred to a clean plate containing full-strength PDA and allowed to incubate at 23° C. for an additional three days.

OB1OCc2cc(F)ccc21 [Compound A]
Botrytis inhibition % (in vivo) (Botrytis cinerea [1]; 0.005 mg per disk, 14 days at 4° C.): 0% | Botrytis inhibition % (in vivo) (Botrytis cinerea [1]; 0.01 mg per disk, 14 days at 4° C.): 0% | Botrytis inhibition % (in vivo) (Botrytis cinerea [1]; 0.023 mg per disk, 14 days at 4° C.): 0% | Botrytis inhibition % (in vivo) (Botrytis cinerea [1]; 0.04 mg per disk, 14 days at 4° C.): 100% | Botrytis inhibition % (in vivo) (Botrytis cinerea [1]; 0.08 mg per disk, 14 days at 4° C.): 100% | Botrytis inhibition % (in vivo) (Botrytis cinerea [1]; 0.16 mg per disk, 14 days at 4° C.): 100% | Botrytis inhibition % (in vivo) (Botrytis cinerea [1]; 0.31 mg per disk, 14 days at 4° C.): 100% | Botrytis inhibition % (in vivo) (Botrytis cinerea [1]; 0.63 mg per disk, 14 days at 4° C.): 100% | Botrytis inhibition % (in vivo) (Botrytis cinerea [1]; 1.25 mg per disk, 14 days at 4° C.): 100% | lowest rate with 100% control of Botrytis cinerea (Botrytis cinerea [1]; 14 days at 4° C.): 0.04 mg/disk | appearance of phytotoxicity (Botrytis cinerea [1]; any of the rates evaluated (2.5 to 0.0024 mg/disk)): no evidence of phytotoxicity | Severity (Average Number of Lesions) (Botrytis cinerea [2]; Petals, 0.04 mg/L, Non-STS, Fog): 0.4 | Severity (Average Number of Lesions) (Botrytis cinerea [2]; Petals, 0.04 mg/L, Non-STS, Volatile): 3.1 | Severity (Average Number of Lesions) (Botrytis cinerea [2]; Petals, 0.04 mg/L, STS, Fog): 0.3 | Severity (Average Number of Lesions) (Botrytis cinerea [2]; Petals, 0.04 mg/L, STS, Volatile): 0.5 | Severity (Average Number of Lesions) (Botrytis cinerea [2]; Petals, 0.2 mg/L, Non-STS, Fog): 0 | Severity (Average Number of Lesions) (Botrytis cinerea [2]; Petals, 0.2 mg/L, Non-STS, Volatile): 1.8 | Severity (Average Number of Lesions) (Botrytis cinerea [2]; Petals, 0.2 mg/L, STS, Fog): 0 | Severity (Average Number of Lesions) (Botrytis cinerea [2]; Petals, 0.2 mg/L, STS, Volatile): 0.1 | Severity (Average Number of Lesions) (Botrytis cinerea [2]; Petals, 1 mg/L, Non-STS, Fog): 0 | Severity (Average Number of Lesions) (Botrytis cinerea [2]; Petals, 1 mg/L, Non-STS, Volatile): 1.5 | Severity (Average Number of Lesions) (Botrytis cinerea [2]; Petals, 1 mg/L, STS, Fog): 0 | Severity (Average Number of Lesions) (Botrytis cinerea [2]; Petals, 1 mg/L, STS, Volatile): 0.1 | Severity (Average Number of Lesions) (Botrytis cinerea [2]; Sepals, 0.04 mg/L, Non-STS, Fog): 0.3 | Severity (Average Number of Lesions) (Botrytis cinerea [2]; Sepals, 0.04 mg/L, Non-STS, Volatile): 2.1 | Severity (Average Number of Lesions) (Botrytis cinerea [2]; Sepals, 0.04 mg/L, STS, Fog): 0.6 | Severity (Average Number of Lesions) (Botrytis cinerea [2]; Sepals, 0.04 mg/L, STS, Volatile): 1.1 | Severity (Average Number of Lesions) (Botrytis cinerea [2]; Sepals, 0.2 mg/L, Non-STS, Fog): 0.04 | Severity (Average Number of Lesions) (Botrytis cinerea [2]; Sepals, 0.2 mg/L, Non-STS, Volatile): 1.6 | Severity (Average Number of Lesions) (Botrytis cinerea [2]; Sepals, 0.2 mg/L, STS, Fog): 0.1 | Severity (Average Number of Lesions) (Botrytis cinerea [2]; Sepals, 0.2 mg/L, STS, Volatile): 0.3 | Severity (Average Number of Lesions) (Botrytis cinerea [2]; Sepals, 1 mg/L, Non-STS, Fog): 0.04 | Severity (Average Number of Lesions) (Botrytis cinerea [2]; Sepals, 1 mg/L, Non-STS, Volatile): 1 | Severity (Average Number of Lesions) (Botrytis cinerea [2]; Sepals, 1 mg/L, STS, Fog): 0.04 | Severity (Average Number of Lesions) (Botrytis cinerea [2]; Sepals, 1 mg/L, STS, Volatile): 0.2 | Incidence (%) (Botrytis cinerea [3]; 0.008 mg/L): 20.0% | Severity (0-4) (Botrytis cinerea [3]; 0.008 mg/L): 0.2 | Incidence (%) (Botrytis cinerea [3]; 0.04 mg/L): 20.0% | Severity (0-4) (Botrytis cinerea [3]; 0.04 mg/L): 0.03 | Incidence (%) (Botrytis cinerea [3]; 0.2 mg/L): 0.0% | Severity (0-4) (Botrytis cinerea [3]; 0.2 mg/L): 0.0 | Browning (mm) (Penicillium expansum; dip 10 mg/L): 8.5 mm | Sporulation (mm) (Penicillium expansum; dip 10 mg/L): 2.1 mm | Browning (mm) (Penicillium expansum; dip 50 mg/L): 3.7 mm | Sporulation (mm) (Penicillium expansum; dip 50 mg/L): 1.6 mm | Browning (mm) (Penicillium expansum; dip 250 mg/L): 0.8 mm | Sporulation (mm) (Penicillium expansum; dip 250 mg/L): 0.5 mm | Spore germination (%) (Botrytis cinerea [4]; 0.07 mg/L, 24 h + 24 h after treatment removal): 10.0% | Spore germination (%) (Botrytis cinerea [4]; 0.07 mg/L, 24 h treatment): 0.0% | Mycelial growth after transfer (%) (Botrytis cinerea [4]; 0.07 mg/L): 60.3% | Spore germination (%) (Botrytis cinerea [4]; 0.14 mg/L, 24 h + 24 h after treatment removal): 0.0% | Spore germination (%) (Botrytis cinerea [4]; 0.14 mg/L, 24 h treatment): 0.0% | Mycelial growth after transfer (%) (Botrytis cinerea [4]; 0.14 mg/L): 53.8% | Spore germination (%) (Botrytis cinerea [4]; 0.28 mg/L, 24 h + 24 h after treatment removal): 0.0% | Spore germination (%) (Botrytis cinerea [4]; 0.28 mg/L, 24 h treatment): 0.0% | Mycelial growth after transfer (%) (Botrytis cinerea [4]; 0.28 mg/L): 51.3% | Spore germination (%) (Botrytis cinerea [4]; 0.56 mg/L, 24 h + 24 h after treatment removal): 0.0% | Spore germination (%) (Botrytis cinerea [4]; 0.56 mg/L, 24 h treatment): 0.0% | Mycelial growth after transfer (%) (Botrytis cinerea [4]; 0.56 mg/L): 43.3% | Spore germination (%) (Botrytis cinerea [4]; 71.4 mg/L, 24 h + 24 h after treatment removal): 0.0% | Spore germination (%) (Botrytis cinerea [4]; 71.4 mg/L, 24 h treatment): 0.0% | Mycelial growth after transfer (%) (Botrytis cinerea [4]; 71.4 mg/L): 0.0% | Spore germination (%) (Botrytis cinerea [4]; 142.9 mg/L, 24 h + 24 h after treatment removal): 0.0% | Spore germination (%) (Botrytis cinerea [4]; 142.9 mg/L, 24 h treatment): 0.0% | Mycelial growth after transfer (%) (Botrytis cinerea [4]; 142.9 mg/L): 0.0% | fungicidal or fungistatic effect (Botrytis cinerea [4]; treated spores after the compound has been removed): fungicidal effect
